Test results: publication PMC4367188 (ACS Chemical Neuroscience, 2015)
“Also recorded” adds a separate entry of the source.

What was measured:
[1] = target: Histamine, H2 (Homo sapiens, UniProt P25021); test: Lead Profiling Screen radioligand binding
[2] = target: Adrenergic β1 (Homo sapiens, UniProt P08588); test: Lead Profiling Screen radioligand binding
[3] = target: Sertonin (5-Hydroxytrptamine) 5-HT2B (Homo sapiens, UniProt P41595); test: Lead Profiling Screen radioligand binding
[4] = pharmacokinetics in male Sprague-Dawley rats; settings: rat
[5] = target: Endothelin ETA (Homo sapiens, UniProt P25101); test: Lead Profiling Screen radioligand binding
[6] = target: Platelet Activating Factor (PAF) (Homo sapiens, UniProt P25105); test: Lead Profiling Screen radioligand binding
[7] = target: Histamine, H3 (Homo sapiens, UniProt Q9Y5N1); test: Lead Profiling Screen radioligand binding
[8] = target: ChAT (Mus musculus, UniProt Q03059); test: ChAT activity in mouse forebrain extracts; format: biochemical; settings: concentrations well above the CHT Ki
ChAT, sequence (Q03059 whole entry): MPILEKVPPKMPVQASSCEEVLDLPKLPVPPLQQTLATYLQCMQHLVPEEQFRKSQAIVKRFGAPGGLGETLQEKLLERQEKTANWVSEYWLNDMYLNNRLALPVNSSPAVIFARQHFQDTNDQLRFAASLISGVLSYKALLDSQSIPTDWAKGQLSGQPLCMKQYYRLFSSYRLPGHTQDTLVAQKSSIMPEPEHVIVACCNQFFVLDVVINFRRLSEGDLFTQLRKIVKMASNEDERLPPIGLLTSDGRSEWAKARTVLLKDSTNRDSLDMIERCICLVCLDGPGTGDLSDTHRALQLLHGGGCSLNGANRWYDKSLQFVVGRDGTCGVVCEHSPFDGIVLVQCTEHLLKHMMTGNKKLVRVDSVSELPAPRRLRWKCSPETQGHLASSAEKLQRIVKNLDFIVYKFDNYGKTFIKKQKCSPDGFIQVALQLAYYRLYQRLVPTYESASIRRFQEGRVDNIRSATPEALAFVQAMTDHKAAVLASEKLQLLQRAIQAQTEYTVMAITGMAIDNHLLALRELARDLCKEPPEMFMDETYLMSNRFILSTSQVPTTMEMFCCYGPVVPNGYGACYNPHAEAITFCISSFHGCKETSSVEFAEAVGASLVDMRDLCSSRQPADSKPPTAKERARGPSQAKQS

[9] = target: Sertonin (5-Hydroxytrptamine) 5-HT3 (Homo sapiens, UniProt P46098); test: Lead Profiling Screen radioligand binding
Sertonin (5-Hydroxytrptamine) 5-HT3, sequence (P46098 24-478): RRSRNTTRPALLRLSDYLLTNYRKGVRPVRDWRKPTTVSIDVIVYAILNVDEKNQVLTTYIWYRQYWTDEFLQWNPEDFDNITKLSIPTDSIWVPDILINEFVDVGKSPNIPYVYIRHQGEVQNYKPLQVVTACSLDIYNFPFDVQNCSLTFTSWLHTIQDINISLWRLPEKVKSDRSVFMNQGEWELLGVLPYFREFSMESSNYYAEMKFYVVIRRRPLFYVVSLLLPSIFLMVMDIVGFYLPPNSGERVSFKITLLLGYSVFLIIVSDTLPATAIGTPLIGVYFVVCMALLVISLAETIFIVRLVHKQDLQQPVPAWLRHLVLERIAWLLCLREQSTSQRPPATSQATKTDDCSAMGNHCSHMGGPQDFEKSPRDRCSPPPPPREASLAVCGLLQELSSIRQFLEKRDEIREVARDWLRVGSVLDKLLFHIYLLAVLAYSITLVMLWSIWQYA

[10] = target: Bradykinin B2 (Homo sapiens, UniProt P30411); test: Lead Profiling Screen radioligand binding
[11] = target: Leukotriene, Cysteinyl CysLT1 (Homo sapiens, UniProt Q9Y271); test: Lead Profiling Screen radioligand binding
[12] = target: Dopamine D42 (Homo sapiens, UniProt P21917, DEL265-296); test: Lead Profiling Screen radioligand binding
[13] = target: CHT (Mus musculus, UniProt Q8BGY9); test: choline uptake in mouse forebrain synaptosomes; format: biochemical; settings: ML352 at 300 nM in saturation choline transport assays
[14] = target: P450 2D6 (Homo sapiens, UniProt P10635); test: cytochrome P450 inhibition
[15] = target: Muscarinic M1 (Homo sapiens, UniProt P11229); test: Lead Profiling Screen radioligand binding
[16] = target: Endothelin ETB (Homo sapiens, UniProt P24530); test: Lead Profiling Screen radioligand binding
Endothelin ETB, sequence (P24530 27-442): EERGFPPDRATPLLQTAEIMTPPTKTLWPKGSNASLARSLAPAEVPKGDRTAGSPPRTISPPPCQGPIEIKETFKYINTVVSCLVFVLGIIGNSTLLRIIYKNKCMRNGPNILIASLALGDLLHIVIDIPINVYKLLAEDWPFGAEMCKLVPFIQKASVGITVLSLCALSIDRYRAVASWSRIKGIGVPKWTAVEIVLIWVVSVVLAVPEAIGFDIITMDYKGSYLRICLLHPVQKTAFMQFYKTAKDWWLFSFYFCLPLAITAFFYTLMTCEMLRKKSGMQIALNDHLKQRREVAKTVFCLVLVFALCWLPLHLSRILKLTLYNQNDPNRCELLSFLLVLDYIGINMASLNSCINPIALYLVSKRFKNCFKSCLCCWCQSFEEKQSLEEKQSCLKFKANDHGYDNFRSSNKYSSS

[17] = target: Cannabinoid CB1 (Homo sapiens, UniProt P21554); test: Lead Profiling Screen radioligand binding
[18] = system: Calcium Channel L-Type, Benzothiazepine; test: Lead Profiling Screen radioligand binding; settings: 10 μM ML352
[19] = target: GABAB1A (Homo sapiens, UniProt Q9UBS5); test: Lead Profiling Screen radioligand binding
[20] = target: dopamine transporter (DAT) (Homo sapiens, UniProt Q01959); test: [3H]DA uptake in HEK293 hDAT cells; format: cell-based; settings: transfected HEK 293 cells
dopamine transporter (DAT), sequence (Q01959 whole entry): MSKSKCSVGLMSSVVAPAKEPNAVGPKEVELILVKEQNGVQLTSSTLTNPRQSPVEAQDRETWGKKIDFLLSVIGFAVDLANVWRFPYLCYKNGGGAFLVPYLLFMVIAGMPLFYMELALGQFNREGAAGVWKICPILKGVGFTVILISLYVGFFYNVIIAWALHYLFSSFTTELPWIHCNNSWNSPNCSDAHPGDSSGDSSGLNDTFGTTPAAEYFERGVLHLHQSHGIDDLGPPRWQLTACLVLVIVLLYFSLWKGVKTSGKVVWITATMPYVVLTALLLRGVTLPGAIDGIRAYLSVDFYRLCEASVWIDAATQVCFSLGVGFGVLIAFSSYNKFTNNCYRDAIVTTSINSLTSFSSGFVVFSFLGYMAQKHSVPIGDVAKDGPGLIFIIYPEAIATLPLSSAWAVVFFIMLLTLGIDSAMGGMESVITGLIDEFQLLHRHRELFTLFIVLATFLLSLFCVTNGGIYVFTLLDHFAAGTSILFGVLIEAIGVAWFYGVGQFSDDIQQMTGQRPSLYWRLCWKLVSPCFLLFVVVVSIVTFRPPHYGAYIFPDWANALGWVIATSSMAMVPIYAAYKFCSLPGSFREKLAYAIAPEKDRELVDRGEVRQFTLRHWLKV

[21] = target: Estrogen Erα (Homo sapiens, UniProt P03372); test: Lead Profiling Screen radioligand binding
Estrogen Erα, sequence (P03372 whole entry): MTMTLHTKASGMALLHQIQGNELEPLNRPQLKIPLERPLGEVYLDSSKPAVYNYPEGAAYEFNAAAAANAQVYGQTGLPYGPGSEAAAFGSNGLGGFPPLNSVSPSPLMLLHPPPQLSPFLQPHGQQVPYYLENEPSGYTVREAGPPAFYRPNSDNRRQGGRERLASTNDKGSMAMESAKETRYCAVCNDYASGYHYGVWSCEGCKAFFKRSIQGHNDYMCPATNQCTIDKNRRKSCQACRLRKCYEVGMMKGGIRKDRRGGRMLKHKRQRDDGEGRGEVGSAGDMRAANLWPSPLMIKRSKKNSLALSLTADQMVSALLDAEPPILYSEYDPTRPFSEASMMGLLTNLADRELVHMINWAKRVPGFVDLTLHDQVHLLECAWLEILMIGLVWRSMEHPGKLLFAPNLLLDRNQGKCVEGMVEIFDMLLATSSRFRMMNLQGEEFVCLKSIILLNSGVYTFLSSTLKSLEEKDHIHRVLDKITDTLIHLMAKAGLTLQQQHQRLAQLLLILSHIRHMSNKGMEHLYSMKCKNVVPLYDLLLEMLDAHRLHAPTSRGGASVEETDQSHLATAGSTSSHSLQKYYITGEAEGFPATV

[22] = target: Adrenergic α2A (Homo sapiens, UniProt P08913); test: Lead Profiling Screen radioligand binding
[23] = target: Adenosine A3 (Homo sapiens, UniProt P0DMS8); test: Lead Profiling Screen radioligand binding
[24] = target: Opiate δ1 (OP1, DOP) (Homo sapiens, UniProt P41143); test: Lead Profiling Screen radioligand binding
Opiate δ1 (OP1, DOP), sequence (P41143 whole entry): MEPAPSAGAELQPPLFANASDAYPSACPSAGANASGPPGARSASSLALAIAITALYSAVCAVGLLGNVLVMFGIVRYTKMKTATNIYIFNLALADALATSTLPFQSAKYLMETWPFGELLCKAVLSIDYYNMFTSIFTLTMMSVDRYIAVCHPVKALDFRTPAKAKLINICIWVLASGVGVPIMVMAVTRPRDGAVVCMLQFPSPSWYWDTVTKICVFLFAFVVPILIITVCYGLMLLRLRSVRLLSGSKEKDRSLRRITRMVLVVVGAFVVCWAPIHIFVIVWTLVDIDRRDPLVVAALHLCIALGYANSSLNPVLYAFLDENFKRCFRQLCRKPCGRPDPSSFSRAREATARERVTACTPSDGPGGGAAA

[25] = target: Transporter, Serotonin (5-hydroxytryptamine) (SERT) (Homo sapiens, UniProt P31645); test: Lead Profiling Screen radioligand binding
[26] = target: Transporter, Dopamine (DAT) (Homo sapiens, UniProt Q01959); test: Lead Profiling Screen radioligand binding
Transporter, Dopamine (DAT), sequence (Q01959 whole entry): as the sequence (Q01959 whole entry) above

[27] = target: Neuropeptide Y Y1 (Homo sapiens, UniProt P25929); test: Lead Profiling Screen radioligand binding
Neuropeptide Y Y1, sequence (P25929 whole entry): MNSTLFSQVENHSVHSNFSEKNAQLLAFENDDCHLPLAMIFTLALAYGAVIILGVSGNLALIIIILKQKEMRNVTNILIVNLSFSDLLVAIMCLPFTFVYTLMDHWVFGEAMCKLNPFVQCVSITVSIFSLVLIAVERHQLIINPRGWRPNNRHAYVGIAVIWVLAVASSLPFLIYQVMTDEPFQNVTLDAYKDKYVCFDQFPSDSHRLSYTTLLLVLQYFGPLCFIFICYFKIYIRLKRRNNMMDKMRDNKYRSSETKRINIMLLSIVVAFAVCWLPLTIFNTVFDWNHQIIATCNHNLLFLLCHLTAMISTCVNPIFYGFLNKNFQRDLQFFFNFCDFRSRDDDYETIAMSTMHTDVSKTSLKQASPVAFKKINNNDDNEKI

[28] = system: GABAA, Flunitrazepam, Central; test: Lead Profiling Screen radioligand binding; settings: 10 μM ML352
[29] = target: Melatonin MT1 (Homo sapiens, UniProt P48039); test: Lead Profiling Screen radioligand binding
[30] = target: T1, WT hCHT (Homo sapiens, UniProt Q9GZV3); test: cell-surface biotinylation, CHT surface expression in WT hCHT HEK 293 cells; format: cell-based; settings: 5 μM, 15 min incubation
T1 sequence (Q9GZV3 1-580): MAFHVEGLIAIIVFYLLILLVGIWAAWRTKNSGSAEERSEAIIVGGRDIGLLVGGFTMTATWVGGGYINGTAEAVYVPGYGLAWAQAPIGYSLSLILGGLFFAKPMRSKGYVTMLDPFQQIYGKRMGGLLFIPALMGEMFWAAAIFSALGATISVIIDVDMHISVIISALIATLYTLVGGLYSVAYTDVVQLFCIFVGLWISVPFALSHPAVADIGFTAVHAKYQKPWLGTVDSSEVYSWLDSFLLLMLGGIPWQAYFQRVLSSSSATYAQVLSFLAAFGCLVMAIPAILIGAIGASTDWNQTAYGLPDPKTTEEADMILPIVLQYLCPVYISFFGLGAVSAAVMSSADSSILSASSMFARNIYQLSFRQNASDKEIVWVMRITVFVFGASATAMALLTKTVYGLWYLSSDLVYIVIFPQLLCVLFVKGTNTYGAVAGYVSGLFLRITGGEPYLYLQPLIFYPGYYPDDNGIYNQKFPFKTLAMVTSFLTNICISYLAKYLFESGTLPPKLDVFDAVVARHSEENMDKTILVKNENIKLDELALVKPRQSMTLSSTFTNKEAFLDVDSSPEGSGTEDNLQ

[31] = system: Imidazoline I2, Central; test: Lead Profiling Screen radioligand binding; settings: 10 μM ML352
[32] = system: Rolipram; test: Lead Profiling Screen radioligand binding; settings: 10 μM ML352
[33] = system: Potassium Channel [KATP]; test: Lead Profiling Screen radioligand binding; settings: 10 μM ML352
[34] = target: Bradykinin B1 (Homo sapiens, UniProt P46663); test: Lead Profiling Screen radioligand binding
Bradykinin B1, sequence (P46663 whole entry): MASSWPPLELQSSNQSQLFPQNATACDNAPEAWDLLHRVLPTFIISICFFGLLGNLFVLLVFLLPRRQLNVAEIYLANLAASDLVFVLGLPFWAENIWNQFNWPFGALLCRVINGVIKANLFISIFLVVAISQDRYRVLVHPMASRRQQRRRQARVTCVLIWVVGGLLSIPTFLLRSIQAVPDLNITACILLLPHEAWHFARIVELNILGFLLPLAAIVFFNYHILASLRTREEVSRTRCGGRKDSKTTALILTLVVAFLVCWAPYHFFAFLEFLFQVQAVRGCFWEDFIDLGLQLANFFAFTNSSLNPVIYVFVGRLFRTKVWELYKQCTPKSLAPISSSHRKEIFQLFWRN

[35] = system: Glutamate, Kainate; test: Lead Profiling Screen radioligand binding; settings: 10 μM ML352

Histamine, H2, sequence (P25021 whole entry): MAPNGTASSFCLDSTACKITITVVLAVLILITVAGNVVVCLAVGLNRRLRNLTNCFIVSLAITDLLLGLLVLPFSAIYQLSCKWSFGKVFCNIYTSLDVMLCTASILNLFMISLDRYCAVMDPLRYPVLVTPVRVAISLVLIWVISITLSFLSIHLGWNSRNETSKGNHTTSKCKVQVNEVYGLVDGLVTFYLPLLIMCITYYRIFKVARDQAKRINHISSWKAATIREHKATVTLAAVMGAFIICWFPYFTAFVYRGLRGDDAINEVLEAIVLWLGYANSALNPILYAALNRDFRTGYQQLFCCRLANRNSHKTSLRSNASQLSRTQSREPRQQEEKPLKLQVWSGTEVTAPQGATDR
Adrenergic β1, sequence (P08588 whole entry): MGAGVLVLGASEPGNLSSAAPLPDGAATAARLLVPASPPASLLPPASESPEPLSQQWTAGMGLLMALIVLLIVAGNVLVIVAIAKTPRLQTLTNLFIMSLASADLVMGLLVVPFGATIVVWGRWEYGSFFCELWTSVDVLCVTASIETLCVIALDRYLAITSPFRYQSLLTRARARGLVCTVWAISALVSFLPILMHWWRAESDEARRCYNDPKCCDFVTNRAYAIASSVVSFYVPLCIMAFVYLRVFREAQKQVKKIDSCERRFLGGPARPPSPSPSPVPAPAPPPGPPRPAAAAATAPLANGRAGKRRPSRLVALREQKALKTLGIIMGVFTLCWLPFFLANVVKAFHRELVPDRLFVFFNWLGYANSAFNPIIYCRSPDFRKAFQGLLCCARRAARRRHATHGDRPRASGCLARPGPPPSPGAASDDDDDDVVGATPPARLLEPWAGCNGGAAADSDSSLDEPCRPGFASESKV

In the case of `COc1ccc(C(=O)NCc2cc(C(C)C)no2)cc1OC1CCN(C)CC1` [ML352, N-((3-isopropylisoxazol-5-yl)methyl)-4-methoxy-3-((1-methylpiperidin-4-yl)oxy)benzamide], the inhibition at 10 µM [1] is reported as 20%, the inhibition at 10 µM [2] is reported as 2% and the inhibition at 10 µM [3] is reported as -7%. It also gave a clearance ([4]; in vivo, iv, 1 mg/kg) of 107 mL/min/kg, a half-life ([4]; in vivo, iv, 1 mg/kg) of 30 min and an AUC ([4]; plasma, iv, 1 mg/kg) of 150 ng·h/mL. The AUC ([4]; plasma, po, 2.3 mg/kg) was 77.5 ng·h/mL, the Cmax ([4]; plasma, po, 2.3 mg/kg) was 32.6 ng/mL and the Tmax ([4]; plasma, po, 2.3 mg/kg) was 15 min. For the same compound, the bioavailability ([4]; plasma, po, 2.3 mg/kg) was 22%, the inhibition at 10 µM [5] was -3% and the inhibition at 10 µM [6] was -4%. For the same compound, the inhibition at 10 µM [7] was 7%, the “inhibition of ChAT activity” value [8] was “no ability; also recorded: lacks activity; also recorded: no inhibition” and the inhibition at 10 µM [9] was 2%. It also gave an inhibition at 10 µM [10] of -3%, an inhibition at 10 µM [11] of -3% and an inhibition at 10 µM [12] of -3%. For the same compound, the “mode of choline uptake inhibition” value [13] was “noncompetitively inhibits”, the IC50 [14] was > 30 µM and the inhibition at 10 µM [15] was 32%. For the same compound, the inhibition at 10 µM [16] was -2%, the inhibition at 10 µM [17] was 4% and the “% inhibition” value [18] was 3%. For the same compound, the inhibition at 10 µM [19] was -9%, the “inhibitory activity at DAT” value [20] was “lack of inhibitory activity” and the inhibition at 10 µM [21] was 4%. For the same compound, the inhibition at 10 µM [22] was 43%, the inhibition at 10 µM [23] was 4% and the inhibition at 10 µM [24] was -2%. It also gave an inhibition at 10 µM [25] of 2%, an inhibition at 10 µM [26] of 4% and an inhibition at 10 µM [27] of -2%. For the same compound, the “% inhibition” value [28] was 6%, the inhibition at 10 µM [29] was 5% and the “increase in steady-state hCHT surface expression” value [30] was 43.4 ± 4.7 % of control. For the same compound, the “% inhibition” value [31] was 16%, the “% inhibition” value [32] was 1% and the “% inhibition” value [33] was 4%. For the same compound, the inhibition at 10 µM [34] was 6% and the “% inhibition” value [35] was “–2%”.
